For series [1], the target named is T1, HilD (Salmonella typhimurium, UniProt P0CL08).
T1 construct: His6-SUMO (N, cleaved yes); made in house; host or cells: E. coli C41(DE3)
The experiment in a line: nanoDSF thermal stability, HilD. In kind it is binding, S. Typhimurium. As to the method:
Thermal stability of proteins was determined using nanoDSF, with runs performed on a Prometheus NT.48 (NanoTemper Technologies). A twofold serial dilution series of C26 was prepared in DMSO. C26 was added to HilD or HilC (5 μM) in SEC buffer, giving a final DMSO concentration of 1% (v/v). Samples were incubated for >20 min at r.t. and centrifuged for 2 min prior to loading of standard capillaries (no. PR-C002). Samples were heated from 20° to 80°C with a temperature gradient of 0.5°C min^−1. Melting temperatures were calculated from changes in the fluorescence ratio (350/330 nm), using PR.Stability Analysis v1.0.3 and a temperature range of 40° to 70°C for curve fitting. Data analysis was performed using Prism 8.4 (GraphPad). The change in HilD melting temperature, Tm, was fitted as a function of ligand concentration, using Eqs. 1 and 2 to yield apparent affinity (Kd,app) values Tm{[L]0}=Tm,lower+(Tm,upper−Tm,lower)*(1−α{[L]0}) (1) α{[L]0}=[P]t−Kd−[L]t+{[P]t+[L]t+Kd,app}^2−{4[P]t[L]t}/2[P]t (2) where [P]t and [L]t are the total protein and ligand concentrations, respectively.

The target in series [2] is T2, HilD (Salmonella typhimurium, UniProt E1WAC0).
T2 construct: endogenous in cells; host or cells: S. Typhimurium SL1344 strain PhilA-sfGFP
The experiment in a line: Whole-cell HilD activity assay (PhilA-sfGFP activation). In kind it is cell-based, S. Typhimurium. As to conditions: for activity in PhilA activation assay, in words: CDCA: highest tested concentration 100 μM. How it is done:
A whole-cell reporter gene assay was used to quantify HilD transcriptional activity. Strain PhilA-sfGFP and the isogenic ΔhilD PhilA-sfGFP were used for this purpose. Cultures were performed in 1 ml of LB supplemented with 0.3 M NaCl. Compounds at different concentrations or 1% (v/v) DMSO were added to the corresponding tubes. Cultures were incubated at 37°C and 180 rpm for 5 hours. Cells were pelleted, resuspended in 100 μl of PBS, and then transferred into a 96-well black clear-bottom plate (Thermo Fisher Scientific, USA). Fluorescence intensity was measured with a Tecan Spark microplate reader with an excitation wavelength of 485 nm and an emission wavelength of 510 nm. Dose-response curves and IC50 values were calculated using CDD Vault.

The next series concerns HeLa cells. Put plainly: Cytotoxicity, CellTox Green Cytotoxicity Assay, HeLa. It counts as cell-based. As to conditions: exposure time 18 h. As to the method:
In vitro toxicity of compound C26 was assessed in HeLa cells (ATCC CCL-2) using the ApoTox-Glo Triplex Assay and in macrophages RAW 264.7-LgBiT using the CellTox Green Cytotoxicity Assay (Promega, USA) according to the manufacturer’s instructions. The screening of in vitro toxicity of the compound analogs was performed with the CellTox Green Cytotoxicity Assay (Promega, USA) according to the manufacturer’s instructions. Cells (10^4 cells per well) were seeded into a 96-well plate and incubated for 24 hours at 37°C, 5% (v/v) CO2. Cells were then treated with the compound at different concentrations or 1% (v/v) DMSO in Dulbecco’s modified Eagle’s medium (DMEM) without phenol red at the desired exposure time. Fluorescence intensity was measured with a TECAN Spark microplate reader. Cytotoxicity [relative fluorescence units (RFU)] and viability (RFU) values were plotted to calculate the TC50 using GraphPad Prism 10.1.1.
Compound concentration (µM) […]
in vitro cytotoxicity of C26 and analogs. Cytotoxicity assessed with CellTox™ Green Cytotoxicity Assay with an exposure time of 18 h. N = 3 biological replicates. Data were plotted and TC50 values were generated with GraphPad Prism 10.1.1.
(1 picture or pasted object on this page, not shown here)

A further series has as its target T3, HilD dimer (Salmonella typhimurium, UniProt P0CL08).
T3 construct: His6-SUMO (N, cleaved yes); made in house; host or cells: E. coli C41(DE3)
The experiment in a line: BS3 cross-linking of HilD. As to conditions: oleic acid 50 and 100 μM; C26 up to 200 μM. It counts as biochemical, S. Typhimurium. As to the method: BS^3 cross-linking of HilD was performed as previously described ([39]). In summary, HilD (10 μM) was first incubated with C26 or oleic acid in SEC buffer for 20 min at r.t., with a final DMSO concentration of 1% (v/v). HilD was then cross-linked by incubation with 0.2 mM BS^3 (Thermo Fisher Scientific, Pierce, A39266) at r.t. for 1 hour, before the reaction was quenched by the addition of 50 mM Tris (pH 7.5). Samples were analyzed using SDS-PAGE and visualized by silver staining.

The target of another series is HilD-HilE heterodimer (Salmonella typhimurium, UniProt P0CL08). Put plainly: MST dimerization assay HilD-HilE. It counts as binding, S. Typhimurium. As to conditions: 100 μM compound. How it is done: MST measurements for the binding of HilD to HilE were performed as previously described ([39]). In summary, enhanced yellow fluorescent protein (EYFP)-HilD (100 nM) was incubated with 100 μM either oleic acid or C26 [with a final concentration of 1% (v/v) DMSO] for 10 min at r.t. (22° to 25°C) and subsequently mixed 1:1 with varying concentrations of HilE. Samples were incubated together for 10 min at r.t., centrifuged for 5 min, and loaded to standard capillaries (NanoTemper Technologies GmbH, no. MO-K022). MST runs were performed at 25°C on a NanoTemper Monolith NT.115, with an excitation power of 60% and medium MST power. Data were analyzed using the MO.Affinity Analysis v2.3 software, and affinity constants were calculated using the Kd model.

The series “SEC-MALS” concerns the molecule itself. Put plainly: SEC-MALS.
For series [3], the target named is T4, HilE (Salmonella enterica subsp. enterica …).
T4 chain: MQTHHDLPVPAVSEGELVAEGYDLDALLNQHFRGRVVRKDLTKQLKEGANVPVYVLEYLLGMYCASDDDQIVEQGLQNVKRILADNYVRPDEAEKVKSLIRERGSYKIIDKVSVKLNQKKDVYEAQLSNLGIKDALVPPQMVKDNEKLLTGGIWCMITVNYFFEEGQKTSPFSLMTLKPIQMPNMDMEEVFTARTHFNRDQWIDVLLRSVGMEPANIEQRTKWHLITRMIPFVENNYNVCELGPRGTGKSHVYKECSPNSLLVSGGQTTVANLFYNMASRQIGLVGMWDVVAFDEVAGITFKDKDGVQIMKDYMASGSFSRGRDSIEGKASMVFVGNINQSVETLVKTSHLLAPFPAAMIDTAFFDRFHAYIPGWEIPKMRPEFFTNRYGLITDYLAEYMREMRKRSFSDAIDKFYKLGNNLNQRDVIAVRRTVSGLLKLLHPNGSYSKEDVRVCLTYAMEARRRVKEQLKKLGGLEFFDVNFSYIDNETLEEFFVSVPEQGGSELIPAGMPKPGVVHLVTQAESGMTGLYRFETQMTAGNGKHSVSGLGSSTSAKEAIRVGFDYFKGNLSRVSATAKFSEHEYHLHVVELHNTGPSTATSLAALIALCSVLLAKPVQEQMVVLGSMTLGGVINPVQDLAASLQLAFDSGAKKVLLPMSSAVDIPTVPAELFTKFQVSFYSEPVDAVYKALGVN
Put plainly: MST; 1% DMSO.

In series [4] the target is T4, HilE. Put plainly: MST; 100 uM C26.

With `CN(CC(=O)NCc1ccc2c(c1)OC(F)(F)O2)Cc1ccc(Br)s1` [SW-C182, 2-{[(5-Bromothiophen-2-yl)methyl](methyl)amino}-N-[(2,2-difluorobenzo[d][1,3]dioxol-5-yl)methyl]acetamide], on HilD [1], the equilibrium dissociation constant (Kd) was 2.7 µM. This molecule also had an IC50 against HilD [2] of 4.9 µM. Besides, the TC50 cytotoxicity with HeLa cells was 49.9 µM.

On HilD [2], `CCCCCCCCCCCCC/C=C\C(=O)O` [c2-HDA, cis-2-hexadecenoic acid, reference compound] displayed an IC50 of 0.21 µM.

Take `CN(CC(=O)NCc1ccc(O)c(O)c1)Cc1ccc(Br)s1` [SW-C170, 2-{[(5-Bromothiophen-2-yl)methyl](methyl)amino}-N-(3,4-dihydroxybenzyl)acetamide]: the Kd on HilD [1] is > 100 µM. Further, on HilD [2], the IC50 was > 100 µM and the “activity in PhilA activation assay, in words” value is given as “complete loss of activity”. In addition, in the series with HeLa cells, the TC50 cytotoxicity was > 100 µM.

`CCCCCCCC/C=C\CCCCCCCC(=O)O` [oleic acid, reference compound]: the “levels of cross-linked HilD dimer” value at HilD dimer is “Decreased levels of the cross-linked HilD dimer”. On HilD-HilE heterodimer, the “formation of HilD-HilE heterodimers” value is “disrupted the binding of HilE to HilD”. Half-maximal inhibition at HilD [2] (IC50) required 25.1 µM.

As for `CN(CC(=O)NCc1ccc(Cl)cc1)Cc1ccc(Br)s1` [SW-C202, 2-{[(5-Bromothiophen-2-yl)methyl](methyl)amino}-N-(4-chlorobenzyl)acetamide], binding at HilD [1] was characterised by a dissociation constant (Kd) of 4.1 µM. The molecule further came in with an IC50 against HilD [2] of 3.9 µM. This molecule yielded a TC50 cytotoxicity with HeLa cells of 87.3 µM.

Regarding `CN(CC(=O)NCc1ccc2c(c1)OCO2)Cc1ccc(Br)o1` [SW-C210, N-(benzo[d][1,3]dioxol-5-ylmethyl)-2-{[(5-bromofuran-2-yl)methyl](methyl)amino}acetamide], the Kd on HilD [1] was > 100 µM. Further, the IC50 against HilD [2] is > 100 µM. Besides, the TC50 cytotoxicity with HeLa cells is > 100 µM.

The molecule `CN(CC(=O)NCc1ccccc1)Cc1ccc(Br)s1` [SW-C103] had a Kd at HilD [1] of 28.8 µM. The molecule also gave an IC50 against HilD [2] of 34.4 µM. Besides, in the series on HeLa cells, the TC50 cytotoxicity is > 100 µM.

On to `CN(CC(=O)NCc1ccc2c(c1)OCO2)Cc1ccccc1Br` [SW-C165, N-(benzo[d][1,3]dioxol-5-ylmethyl)-2-[(2-bromobenzyl)(methyl)amino]acetamide], for which the Kd at HilD [1] was > 100 µM. In addition, the IC50 at HilD [2] was > 100 µM. In the series with HeLa cells, the TC50 cytotoxicity was > 100 µM.

Take `CCCCCC/C=C\CCCCCCCC(=O)O` [palmitoleic acid, reference compound]: at HilD [2], half-maximal inhibition (IC50) required 25.8 µM.

On to `CN(CC(=O)NCc1cc(Cl)cc(Cl)c1)Cc1ccc(Br)s1` [SW-C250, 2-{[(5-Bromothiophen-2-yl)methyl](methyl)amino}-N-(3,5-dichlorobenzyl)acetamide], for which, on HilD [1], the Kd worked out at 1.8 µM. Further, on HilD [2], half-maximal inhibition (IC50) was put at 3.2 µM. Moreover, in the series on HeLa cells, the TC50 cytotoxicity is > 100 µM.

Turning to `CN(CC(=O)NCc1ccc2c(c1)OCO2)Cc1ccc(Br)cc1` [SW-C116], the Kd on HilD [1] was > 100 µM. The molecule further yielded an IC50 against HilD [2] of 68.3 µM. In the series with HeLa cells, the TC50 cytotoxicity was > 100 µM.

At HilD [1], `Cc1ccc(CN(C)CC(=O)NCc2ccc3c(c2)OCO3)s1` [SW-C153] gave a Kd of 8.8 µM. Besides, the IC50 on HilD [2] stood at 63.1 µM. Also, the TC50 cytotoxicity in the series with HeLa cells is > 100 µM.

For `C[C@H](CCC(=O)O)[C@H]1CC[C@H]2[C@@H]3[C@H](O)C[C@@H]4C[C@H](O)CC[C@]4(C)[C@H]3CC[C@]12C` [CDCA, chenodeoxycholic acid, reference compound], at HilD [2], the “activity in PhilA activation assay, in words” value is listed as “No activity”.

B1: HilD (natural protein)
chain: MENVTFVSNSHQRPAADNLQKLKSLLTNTRQQIKSQTQQVTIKNLYVSSFTLVCFRSGKLTISNNHDTIYCDEPGMLVLKKEQVVNVTLEEVNGHMDFDILEIPTQRLGALYALIPNEQQTKMAVPTEKAQKIFYTPDFPARREVFEHLKTAFSCTKDTSKGCSNCNNKSCIENEELIPYFLLFLLTAFLRLPESYEIILSSAQITLKERVYNIISSSPSRQWKLTDVADHIFMSTSTLKRKLAEEGTSFSDIYLSARMNQAAKLLRIGNHNVNAVALKCGYDSTSYFIQCFKKYFKTTPSTFIKMANH
notes: also called HilDWT; recombinant HilD; source: E. coli C41(DE3), purified (Ni-NTA, SUMO protease cleavage, second Ni-NTA, SEC)
Regarding B1, in the series “SEC-MALS”, the “stoichiometry N” value was found to be 2. In addition, the values for the Kd in the series with HilE [3] and in the series with HilE [4] were 1.7 µM and 1.71 µM, respectively.

Source of the values: PMC11988454, “Discovery of synthetic small molecules targeting the central regulator of Salmonella pathogenicity” (Science Advances, 2025).
